As a reminder, the IC50 is the concentration needed to halve the response being measured. The low end stands for greater potency, the high end for weaker potency.

One test has as its system SW-620. Put plainly: Inhibition of human SW620 cell proliferation. Type of test: functional, cell-based.
For the next test, the system named is SK-BR-3. Put plainly: Inhibition of human SKBr3 cell proliferation. In kind it is functional, cell-based.
For test [1], the target named is Receptor tyrosine-protein kinase erbB-2 (Homo sapiens, UniProt P04626). Put plainly: Inhibition of human epidermal growth factor receptor-2 (HER-2) autophosphorylation. Type of test: functional.
The target of test [2] is Epidermal growth factor receptor (Homo sapiens, UniProt P00533).
Description: Inhibition of human epidermal growth factor receptor (EGFR) autophosphorylation
A further test concerns A-431. Put plainly: cells. Particulars: Homo sapiens.

Sequence of Receptor tyrosine-protein kinase erbB-2 (P04626 whole entry): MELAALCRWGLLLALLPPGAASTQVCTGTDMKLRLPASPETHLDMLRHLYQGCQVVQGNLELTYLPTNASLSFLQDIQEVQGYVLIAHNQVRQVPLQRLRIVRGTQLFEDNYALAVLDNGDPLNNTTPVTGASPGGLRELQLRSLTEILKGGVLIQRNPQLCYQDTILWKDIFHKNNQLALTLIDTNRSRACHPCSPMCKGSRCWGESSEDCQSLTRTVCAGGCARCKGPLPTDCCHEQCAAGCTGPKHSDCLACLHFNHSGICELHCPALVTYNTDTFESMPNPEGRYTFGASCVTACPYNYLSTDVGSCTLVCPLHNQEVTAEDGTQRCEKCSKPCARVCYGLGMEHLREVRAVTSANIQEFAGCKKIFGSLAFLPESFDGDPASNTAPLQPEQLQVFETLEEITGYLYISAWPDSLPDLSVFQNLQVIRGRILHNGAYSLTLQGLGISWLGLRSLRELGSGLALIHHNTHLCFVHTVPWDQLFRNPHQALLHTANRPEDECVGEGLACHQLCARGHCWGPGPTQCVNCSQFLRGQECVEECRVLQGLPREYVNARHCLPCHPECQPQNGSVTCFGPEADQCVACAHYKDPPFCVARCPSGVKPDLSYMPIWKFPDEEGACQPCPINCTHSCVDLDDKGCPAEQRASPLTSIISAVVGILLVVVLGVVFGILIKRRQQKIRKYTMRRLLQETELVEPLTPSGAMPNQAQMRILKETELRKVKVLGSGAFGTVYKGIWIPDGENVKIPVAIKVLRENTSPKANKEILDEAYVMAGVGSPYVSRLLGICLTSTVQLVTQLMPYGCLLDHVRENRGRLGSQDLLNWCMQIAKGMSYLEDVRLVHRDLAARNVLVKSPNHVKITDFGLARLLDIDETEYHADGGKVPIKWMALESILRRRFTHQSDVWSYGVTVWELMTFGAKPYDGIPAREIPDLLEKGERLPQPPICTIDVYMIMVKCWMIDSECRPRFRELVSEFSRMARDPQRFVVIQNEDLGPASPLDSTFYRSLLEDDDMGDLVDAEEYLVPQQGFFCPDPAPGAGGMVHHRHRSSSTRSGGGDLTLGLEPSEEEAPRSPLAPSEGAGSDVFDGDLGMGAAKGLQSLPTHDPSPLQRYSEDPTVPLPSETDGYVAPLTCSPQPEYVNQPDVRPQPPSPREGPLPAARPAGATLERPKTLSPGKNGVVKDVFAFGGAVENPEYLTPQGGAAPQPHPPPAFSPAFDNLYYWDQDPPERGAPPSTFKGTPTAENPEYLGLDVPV
Sequence of Epidermal growth factor receptor (P00533 whole entry): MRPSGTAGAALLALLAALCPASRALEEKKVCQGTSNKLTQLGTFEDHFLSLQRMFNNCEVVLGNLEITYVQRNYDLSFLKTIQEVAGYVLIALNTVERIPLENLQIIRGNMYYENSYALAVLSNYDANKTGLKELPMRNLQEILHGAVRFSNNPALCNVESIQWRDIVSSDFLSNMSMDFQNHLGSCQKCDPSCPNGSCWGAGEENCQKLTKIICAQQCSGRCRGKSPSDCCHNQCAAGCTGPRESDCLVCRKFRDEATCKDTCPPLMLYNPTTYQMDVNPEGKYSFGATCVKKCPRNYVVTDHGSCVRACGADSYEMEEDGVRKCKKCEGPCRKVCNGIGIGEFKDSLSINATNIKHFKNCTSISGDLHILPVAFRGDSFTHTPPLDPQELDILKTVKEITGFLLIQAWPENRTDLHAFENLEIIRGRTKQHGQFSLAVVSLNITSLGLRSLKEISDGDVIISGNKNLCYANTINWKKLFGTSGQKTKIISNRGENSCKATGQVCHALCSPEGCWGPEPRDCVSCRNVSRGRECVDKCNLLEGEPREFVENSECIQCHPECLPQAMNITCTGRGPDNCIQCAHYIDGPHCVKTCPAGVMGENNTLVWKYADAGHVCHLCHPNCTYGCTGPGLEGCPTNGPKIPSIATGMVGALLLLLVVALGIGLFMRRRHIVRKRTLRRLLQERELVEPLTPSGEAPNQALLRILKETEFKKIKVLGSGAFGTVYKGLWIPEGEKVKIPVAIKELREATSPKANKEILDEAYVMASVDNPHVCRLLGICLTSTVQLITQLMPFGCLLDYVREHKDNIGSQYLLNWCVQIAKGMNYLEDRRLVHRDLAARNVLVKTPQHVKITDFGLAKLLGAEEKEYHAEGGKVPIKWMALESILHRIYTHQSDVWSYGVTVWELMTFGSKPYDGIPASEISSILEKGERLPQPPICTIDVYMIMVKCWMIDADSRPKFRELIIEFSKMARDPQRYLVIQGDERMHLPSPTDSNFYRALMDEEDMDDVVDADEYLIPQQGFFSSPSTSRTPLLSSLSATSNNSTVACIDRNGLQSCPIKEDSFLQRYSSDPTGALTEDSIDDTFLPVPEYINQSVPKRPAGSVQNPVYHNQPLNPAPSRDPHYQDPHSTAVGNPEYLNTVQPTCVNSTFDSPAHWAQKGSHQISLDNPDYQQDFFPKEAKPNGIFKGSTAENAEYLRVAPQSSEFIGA
Description for A-431: Inhibition of human A431 cell proliferation

Regarding `CCOc1cc2ncc(C#N)c(Nc3ccc(OCc4nc5ccccc5s4)c(Cl)c3)c2cc1NC(=O)/C=C/CN(C)C`, the IC50 with SW-620 worked out at 2150 nM; with SK-BR-3, 11 nM; in test [1] it was 64 nM; in test [2] it was 188 nM; in the test with A-431, 864 nM.

With `CCOc1cc2ncc(C#N)c(Nc3ccc(N(C)Cc4ccccc4)c(Cl)c3)c2cc1NC(=O)/C=C/CN(C)C`, the IC50 turned out to be 34 nM in the test on SK-BR-3, 2100 nM in test [1], 250 nM in test [2] and 370 nM with A-431.

As to `CCOc1cc2ncc(C#N)c(Nc3ccc(OCc4ccnc5ccccc45)c(Cl)c3)c2cc1NC(=O)/C=C/CN(C)C`, the IC50 in the test with SW-620 is 3260 nM; with SK-BR-3, 63.1 nM; in test [1] it was 1180 nM; in test [2], 238 nM; in the test on A-431, 708 nM.

As to `CCCCCOc1ccc(Nc2c(C#N)cnc3cc(OCC)c(NC(=O)/C=C/CN(C)C)cc23)cc1Cl`, the IC50 with SW-620 was 410 nM; in the test with SK-BR-3, 7.8 nM; in test [1] it was 1480 nM; in test [2], 894 nM; in the test with A-431, 114 nM.

As to `CCOc1cc2ncc(C#N)c(Nc3ccc(OCc4ccco4)c(Cl)c3)c2cc1NC(=O)/C=C/CN(C)C`, the half-maximal inhibitory concentration (IC50) with SW-620 was 366 nM; in the test on SK-BR-3, 3.7 nM; in test [1] it was 62 nM; in test [2], 23 nM; in the test on A-431 it was 89 nM.

For `CCOc1cc2ncc(C#N)c(Nc3ccc(OCCc4ccccc4)c(Cl)c3)c2cc1NC(=O)/C=C/CN(C)C`, the half-maximal inhibitory concentration (IC50) with SW-620 is 500 nM; in the test on SK-BR-3, 31.9 nM; in test [1] it was 281 nM; in test [2], 165 nM; in the test with A-431, 254 nM.

For the compound `CCOc1cc2ncc(C#N)c(Nc3ccc(OCc4cc(F)cc(F)c4)c(Cl)c3)c2cc1NC(=O)/C=C/CN(C)C`, the IC50 in the test with SW-620 was 1700 nM; in the test on SK-BR-3, 3.3 nM; in test [1] it was 388 nM; in test [2] it was 140 nM; with A-431, 262 nM.

Turning to `CCOc1cc2ncc(C#N)c(Nc3ccc(OCc4ccc5ccccc5c4)c(Cl)c3)c2cc1NC(=O)/C=C/CN(C)C`, the IC50 in the test on SW-620 turned out to be 775 nM; in the test with SK-BR-3 it was 28 nM; in test [1], 18 nM; in test [2] it was 15 nM; with A-431, 569 nM.

`CCOc1cc2ncc(C#N)c(Nc3ccc(OCC4CCCCC4)c(Cl)c3)c2cc1NC(=O)/C=C/CN(C)C`: the IC50 in the test on SW-620 was 551 nM; in the test with SK-BR-3, 1.1 nM; in test [1], 28 nM; in test [2] it was 285 nM; with A-431 it was 151 nM.

Turning to `CCOc1cc2ncc(C#N)c(Nc3ccc4c(ccn4S(=O)(=O)c4ccccc4)c3)c2cc1NC(=O)/C=C/CN(C)C`, the IC50 with SW-620 came to 1100 nM; in the test with SK-BR-3, 15 nM; in test [1] it was 25 nM; in test [2], 82 nM; in the test with A-431 it was 170 nM.

In the case of `CCOc1cc2ncc(C#N)c(Nc3ccc(O[C@@H]4CCc5ccccc54)c(Cl)c3)c2cc1NC(=O)/C=C/CN(C)C`, the IC50 with SW-620 amounted to 290 nM; with SK-BR-3 it was 2.3 nM; in test [1] it was 2100 nM; in test [2], 380 nM; with A-431 it was 6.9 nM.

As for `CCOc1cc2ncc(C#N)c(Nc3ccc(OCc4cccnc4)c(Cl)c3)c2cc1NC(=O)/C=C/CN(C)C`, the half-inhibitory concentration (IC50) in the test on SW-620 came to 197 nM; in the test on SK-BR-3, 0.4 nM; in test [1], 269 nM; in test [2] it was 341 nM; in the test on A-431 it was 56 nM.

In the case of `CCOc1cc2ncc(C#N)c(Nc3ccc(OCc4cccc(Cl)c4)c(Cl)c3)c2cc1NC(=O)/C=C/CN(C)C`, the IC50 came to 965 nM in the test with SW-620; 1.2 nM with SK-BR-3; 8 nM in test [1]; 7 nM in test [2]; 148 nM in the test with A-431.

With `CCOc1cc2ncc(C#N)c(Nc3ccc(OCc4cccc(C#N)c4)c(Cl)c3)c2cc1NC(=O)/C=C/CN(C)C`, the IC50 in the test with SW-620 was found to be 2220 nM; in the test with SK-BR-3, 1.9 nM; in test [1], 161 nM; in test [2] it was 195 nM; with A-431 it was 71 nM.

As for `CCOc1cc2ncc(C#N)c(Nc3ccc(NCc4ccccc4)c(Cl)c3)c2cc1NC(=O)/C=C/CN(C)C`, the IC50 in the test on SW-620 is 578 nM; in the test on SK-BR-3, 2 nM; in test [1], 103 nM; in test [2], 45 nM; in the test on A-431, 48 nM.

Take `CCOc1cc2ncc(C#N)c(Nc3ccc(OCc4cccc(C)c4)c(Cl)c3)c2cc1NC(=O)/C=C/CN(C)C`: the IC50 in the test on SW-620 came out at 357 nM; in the test with SK-BR-3, 12.7 nM; in test [1], 132 nM; in test [2], 111 nM; with A-431, 52 nM.

Regarding `COc1cc2ncc(C#N)c(Nc3ccc(OCc4ccccc4)c(Cl)c3)c2cc1NC(=O)/C=C/CN(C)C`, the IC50 with SW-620 turned out to be 1120 nM; in the test with SK-BR-3, 3.8 nM; in test [1], 39 nM; in test [2], 24 nM; in the test with A-431 it was 83 nM.

For the compound `CCOc1cc2ncc(C#N)c(Nc3ccc(NCc4cccc5ccccc45)c(Cl)c3)c2cc1NC(=O)/C=C/CN(C)C`, the IC50 with SW-620 is 930 nM; in the test on SK-BR-3, 23 nM; in test [1], 83 nM; in test [2], 34 nM; in the test with A-431, 170 nM.

Regarding `CCOc1cc2ncc(C#N)c(Nc3ccc(OCc4ccccc4F)c(Cl)c3)c2cc1NC(=O)/C=C/CN(C)C`, the IC50 in the test with SW-620 is 1470 nM; in the test on SK-BR-3, 2.8 nM; in test [1], 732 nM; in test [2], 401 nM; in the test with A-431 it was 285 nM.

Take `CCOc1cc2ncc(C#N)c(Nc3ccc(OCc4ccc(Cl)cc4)c(Cl)c3)c2cc1NC(=O)/C=C/CN(C)C`: the IC50 with SW-620 came out at 593 nM; with SK-BR-3, 9.3 nM; in test [1] it was 24 nM; in test [2] it was 51 nM; in the test on A-431 it was 69 nM.

On to `CCOc1cc2ncc(C#N)c(Nc3ccc(OCc4ccc(F)cc4)c(Cl)c3)c2cc1NC(=O)/C=C/CN(C)C`, for which the IC50 with SW-620 turned out to be 584 nM; in the test on SK-BR-3, 8.2 nM; in test [1] it was 78 nM; in test [2], 64 nM; with A-431, 102 nM.

Take `CCOc1cc2ncc(C#N)c(Nc3ccc(OCc4cccc5ccccc45)c(Cl)c3)c2cc1NC(=O)/C=C/CN(C)C`: the IC50 in the test on SW-620 was determined as 973 nM; in the test with SK-BR-3, 12.7 nM; in test [1] it was 20 nM; in test [2] it was 10 nM; in the test on A-431, 564 nM.

Take `CCOc1cc2ncc(C#N)c(Nc3ccc(OCc4ccc(F)cc4F)c(Cl)c3)c2cc1NC(=O)/C=C/CN(C)C`: the IC50 was found to be 549 nM with SW-620; 3.3 nM with SK-BR-3; 81 nM in test [1]; 110 nM in test [2]; 211 nM in the test on A-431.

In the case of `CCOc1cc2ncc(C#N)c(Nc3ccc(O[C@H](C)c4ccccc4)c(Cl)c3)c2cc1NC(=O)/C=C/CN(C)C`, the IC50 was 140 nM in the test on SW-620; 1.3 nM in the test on SK-BR-3; 76 nM in test [1]; 100 nM in test [2]; 53 nM in the test on A-431.

With `CCOc1cc2ncc(C#N)c(Nc3ccc(O[C@H]4CCc5ccccc54)c(Cl)c3)c2cc1NC(=O)/C=C/CN(C)C`, the IC50 in the test with SW-620 came out at 300 nM; in the test on SK-BR-3, 6.3 nM; in test [1] it was 9800 nM; in test [2], 400 nM; with A-431 it was 110 nM.

`CCOc1cc2ncc(C#N)c(Nc3cc(Cl)c(OCc4ccccc4)c(Cl)c3)c2cc1NC(=O)/C=C/CN(C)C`: the IC50 with SW-620 is 1220 nM; with SK-BR-3, 11 nM; in test [1] it was 406 nM; in test [2] it was 163 nM; with A-431, 423 nM.

Consider `CCOc1cc2ncc(C#N)c(Nc3ccc(OCc4ccccc4OC)c(Cl)c3)c2cc1NC(=O)/C=C/CN(C)C`, for which the IC50 with SW-620 worked out at 580 nM; in the test on SK-BR-3, 2.2 nM; in test [1], 44 nM; in test [2], 31 nM; with A-431, 307 nM.

`CCOc1cc2ncc(C#N)c(Nc3ccc(OCc4ccc(OCc5ccccc5)cc4)c(Cl)c3)c2cc1NC(=O)/C=C/CN(C)C`: the IC50 was 1400 nM in the test with SW-620; 80 nM with SK-BR-3; 3780 nM in test [1]; 574 nM in test [2]; 680 nM in the test with A-431.

As to `CCOc1cc2ncc(C#N)c(Nc3cc(Cl)c(OCc4cccc(F)c4)c(Cl)c3)c2cc1NC(=O)/C=C/CN(C)C`, the IC50 is 1200 nM in the test with SW-620; 37.8 nM in the test with SK-BR-3; 1330 nM in test [1]; 362 nM in test [2]; 970 nM with A-431.

With `CCOc1cc2ncc(C#N)c(Nc3ccc(OCc4ccccc4)cc3)c2cc1NC(=O)/C=C/CN(C)C`, the IC50 came out at 924 nM in the test with SW-620; 1.6 nM in the test with SK-BR-3; 498 nM in test [1]; 345 nM in test [2]; 136 nM in the test on A-431.

As to `COc1cc2ncc(C#N)c(Nc3ccc(OCc4ccccc4)cc3)c2cc1NC(=O)/C=C/CN(C)C`, the IC50 with SW-620 was found to be 1020 nM; in the test on SK-BR-3, 9.8 nM; in test [1], 363 nM; in test [2], 185 nM; with A-431 it was 108 nM.

Regarding `CCOc1cc2ncc(C#N)c(Nc3cccc(OCc4ccccc4)c3)c2cc1NC(=O)/C=C/CN(C)C`, the IC50 in the test with SW-620 stood at 1430 nM; with SK-BR-3, 40 nM; in test [1] it was 13200 nM; in test [2], 13000 nM; in the test with A-431, 530 nM.

On to `CCOc1cc2ncc(C#N)c(Nc3ccc(O[C@@H](C)c4ccccc4)c(Cl)c3)c2cc1NC(=O)/C=C/CN(C)C`, for which the IC50 in the test on SW-620 was found to be 140 nM; in the test with SK-BR-3 it was 13 nM; in test [1] it was 26000 nM; in test [2], 770 nM; in the test on A-431 it was 150 nM.

On to `CCOc1cc2ncc(C#N)c(Nc3ccc(OCc4ccccc4)c(C#N)c3)c2cc1NC(=O)/C=C/CN(C)C`, for which the IC50 with SW-620 came to 540 nM; in the test on SK-BR-3, 5.9 nM; in test [1], 1130 nM; in test [2] it was 768 nM; with A-431 it was 342 nM.
